Experimental data published in patent publication US9096565B2, “Inhibitors of histone deacetylase” (MethylGene Inc., priority 2007, dated 2015).

Biological target: one or more of HDAC-4, HDAC-5, HDAC-6, HDAC-7, HDAC-8, HDAC-9, HDAC-10 and HDAC-11
Assay: Inhibition of histone deacetylase enzymatic activity (summary statement over isoforms)
Type: biochemical
Conditions: Table 3, selected examples; HDAC isoform not given
Procedure, shortened: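 HDAC enzyme mix with compound was preincubated 5 min at room temperature. Reaction was started at 37 °C with Boc-Lys(trifluoroacetyl)-AMC substrate and run 20-30 min. It was stopped with trypsin (1 mg/mL) plus a known HDAC inhibitor to release the fluorogenic AMC.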

IC50 | Compound
1000 to 15000 nM | CC(C)CCOc1cccc(C(C(=O)NO)c2ccccc2)c1 (stereo not shown) [Compound 3-30, N-hydroxy-2-(3-(isopentyloxy)phenyl)-2-phenylacetamide]
1000 to 15000 nM | O=C(NO)C(c1ccccc1)c1cccc(OCC2CCCCC2)c1 (stereo not shown) [Compound 3-32, 2-(3-(cyclohexylmethoxy)phenyl)-N-hydroxy-2-phenylacetamide]
1000 to 15000 nM | Cc1cccc(COc2cccc(C(C(=O)NO)c3ccccc3)c2)c1 (stereo not shown) [Compound 3-33, N-hydroxy-2-(3-(3-methylbenzyloxy)phenyl)-2-phenylacetamide]
< 1000 nM | O=C(NO)C(c1ccccc1)c1cccc(OCc2ccccc2F)c1 (stereo not shown) [Compound 3-34, 2-(3-(2-fluorobenzyloxy)phenyl)-N-hydroxy-2-phenylacetamide]
< 1000 nM | Cc1cc(C)cc(COc2cccc(C(C(=O)NO)c3ccccc3)c2)c1 (stereo not shown) [Compound 3-35, 2-(3-(3,5-dimethylbenzyloxy)phenyl)-N-hydroxy-2-phenylacetamide]
< 1000 nM | O=C(NO)C(c1ccccc1)c1cccc(OCCCc2ccccc2)c1 (stereo not shown) [Compound 3-36, N-hydroxy-2-phenyl-2-(3-(3-phenylpropoxy)phenyl)acetamide]
< 1000 nM | O=C(NO)C(c1ccccc1)c1cccc(OCc2cccc(C(F)(F)F)c2)c1 (stereo not shown) [Compound 3-42, N-hydroxy-2-phenyl-2-(3-(3-(trifluoromethyl)benzyloxy)phenyl)acetamide]
< 1000 nM | COc1ccc(C(C(=O)NO)c2ccccc2)cc1 (stereo not shown) [Compound 3-43, N-hydroxy-2-(4-methoxyphenyl)-2-phenylacetamide]
< 1000 nM | CCOc1ccc(C(C(=O)NO)c2ccccc2)cc1 (stereo not shown) [Compound 3-44, 2-(4-ethoxyphenyl)-N-hydroxy-2-phenylacetamide]
< 1000 nM | C#CCOc1ccc(C(C(=O)NO)c2ccccc2)cc1 (stereo not shown) [Compound 3-45, N-hydroxy-2-phenyl-2-(4-(prop-2-ynyloxy)phenyl)acetamide]
< 1000 nM | C=CCOc1ccc(C(C(=O)NO)c2ccccc2)cc1 (stereo not shown) [Compound 3-46, 2-(4-(allyloxy)phenyl)-N-hydroxy-2-phenylacetamide]
< 1000 nM | CC(C)Oc1ccc(C(C(=O)NO)c2ccccc2)cc1 (stereo not shown) [Compound 3-47, N-hydroxy-2-(4-isopropoxyphenyl)-2-phenylacetamide]
< 1000 nM | C=CCCOc1ccc(C(C(=O)NO)c2ccccc2)cc1 (stereo not shown) [Compound 3-49, 2-(4-(but-3-enyloxy)phenyl)-N-hydroxy-2-phenylacetamide]
< 1000 nM | COCCOc1ccc(C(C(=O)NO)c2ccccc2)cc1 (stereo not shown) [Compound 3-50, N-hydroxy-2-(4-(2-methoxyethoxy)phenyl)-2-phenylacetamide]
< 1000 nM | Cc1noc(C)c1COc1ccc(C(C(=O)NO)c2ccccc2)cc1 (stereo not shown) [Compound 3-51, 2-(4-((3,5-dimethylisoxazol-4-yl)methoxy)phenyl)-N-hydroxy-2-phenylacetamide]
< 1000 nM | CC(C)=CCOc1ccc(C(C(=O)NO)c2ccccc2)cc1 (stereo not shown) [Compound 3-52, N-hydroxy-2-(4-(3-methylbut-2-enyloxy)phenyl)-2-phenylacetamide]
< 1000 nM | O=C(NO)C(c1ccccc1)c1ccc(OC2CCCC2)cc1 (stereo not shown) [Compound 3-53, 2-(4-(cyclopentyloxy)phenyl)-N-hydroxy-2-phenylacetamide]
1000 to 15000 nM | CC(C)CCOc1ccc(C(C(=O)NO)c2ccccc2)cc1 (stereo not shown) [Compound 3-54, N-hydroxy-2-(4-(isopentyloxy)phenyl)-2-phenylacetamide]
< 1000 nM | CC(C)CCCOc1ccc(C(C(=O)NO)c2ccccc2)cc1 (stereo not shown) [Compound 3-56, N-hydroxy-2-(4-(4-methylpentyloxy)phenyl)-2-phenylacetamide]
< 1000 nM | O=C(NO)C(c1ccccc1)c1ccc(OCC2CCCCC2)cc1 (stereo not shown) [Compound 3-57, 2-(4-(cyclohexylmethoxy)phenyl)-N-hydroxy-2-phenylacetamide]
< 1000 nM | Cc1cccc(COc2ccc(C(C(=O)NO)c3ccccc3)cc2)c1 (stereo not shown) [Compound 3-58, N-hydroxy-2-(4-(3-methylbenzyloxy)phenyl)-2-phenylacetamide]
< 1000 nM | CC(Oc1ccc(C(C(=O)NO)c2ccccc2)cc1)c1ccccc1 (stereo not shown) [Compound 3-59, N-hydroxy-2-phenyl-2-(4-(1-phenylethoxy)phenyl)acetamide]
< 1000 nM | O=C(NO)C(c1ccccc1)c1ccc(OCc2ccccc2F)cc1 (stereo not shown) [Compound 3-60, 2-(4-(2-fluorobenzyloxy)phenyl)-N-hydroxy-2-phenylacetamide]
< 1000 nM | N#Cc1ccccc1COc1ccc(C(C(=O)NO)c2ccccc2)cc1 (stereo not shown) [Compound 3-61, 2-(4-(2-cyanobenzyloxy)phenyl)-N-hydroxy-2-phenylacetamide]

IC50 | Compound
< 1000 nM | Cc1cc(C)cc(COc2ccc(C(C(=O)NO)c3ccccc3)cc2)c1 (stereo not shown) [Compound 3-62, 2-(4-(3,5-dimethylbenzyloxy)phenyl)-N-hydroxy-2-phenylacetamide]
< 1000 nM | O=C(NO)C(c1ccccc1)c1ccc(OCCOc2ccccc2)cc1 (stereo not shown) [Compound 3-64, N-hydroxy-2-(4-(2-phenoxyethoxy)phenyl)-2-phenylacetamide]
< 1000 nM | O=C(NO)C(c1ccccc1)c1ccc(OCc2ccccc2Cl)cc1 (stereo not shown) [Compound 3-65, 2-(4-(2-chlorobenzyloxy)phenyl)-N-hydroxy-2-phenylacetamide]
< 1000 nM | O=C(NO)C(c1ccccc1)c1ccc(OCc2cccc(Cl)c2)cc1 (stereo not shown) [Compound 3-66, 2-(4-(3-chlorobenzyloxy)phenyl)-N-hydroxy-2-phenylacetamide]
< 1000 nM | O=C(NO)C(c1ccccc1)c1ccc(OCc2ccc(F)cc2F)cc1 (stereo not shown) [Compound 3-67, 2-(4-(2,4-difluorobenzyloxy)phenyl)-N-hydroxy-2-phenylacetamide]
< 1000 nM | O=C(NO)C(c1ccccc1)c1ccc(OCCOCc2ccccc2)cc1 (stereo not shown) [Compound 3-68, 2-(4-(2-(benzyloxy)ethoxy)phenyl)-N-hydroxy-2-phenylacetamide]
< 1000 nM | O=C(NO)C(c1ccccc1)c1ccc(OCCOc2ccc(F)cc2)cc1 (stereo not shown) [Compound 3-69, 2-(4-(2-(4-fluorophenoxy)ethoxy)phenyl)-N-hydroxy-2-phenylacetamide]
< 1000 nM | CC(C)(C)c1ccc(COc2ccc(C(C(=O)NO)c3ccccc3)cc2)cc1 (stereo not shown) [Compound 3-70, 2-(4-(4-tert-butylbenzyloxy)phenyl)-N-hydroxy-2-phenylacetamide]
< 1000 nM | O=C(NO)C(c1ccccc1)c1ccc(OCc2cccc(C(F)(F)F)c2)cc1 (stereo not shown) [Compound 3-71, N-hydroxy-2-phenyl-2-(4-(3-(trifluoromethyl)benzyloxy)phenyl)acetamide]
1000 to 15000 nM | CC(C)Nc1cccc(C(C(=O)NO)c2ccccc2)c1 (stereo not shown) [Compound 3-72, N-hydroxy-2-(3-(isopropylamino)phenyl)-2-phenylacetamide]
1000 to 15000 nM | O=C(NO)C(c1ccccc1)c1cccc(Nc2ccccc2)c1 (stereo not shown) [Compound 3-73, N-hydroxy-2-phenyl-2-(3-(phenylamino)phenyl)acetamide]
< 1000 nM | O=C(NO)C(c1ccccc1)c1cccc(NCc2ccccn2)c1 (stereo not shown) [Compound 3-74, N-hydroxy-2-phenyl-2-(3-(pyridin-2-ylmethylamino)phenyl)acetamide]
< 1000 nM | CC(=O)N1CCN(c2cccc(C(C(=O)NO)c3ccccc3)c2)CC1 (stereo not shown) [Compound 3-75, 2-(3-(4-acetylpiperazin-1-yl)phenyl)-N-hydroxy-2-phenylacetamide]
< 1000 nM | O=C(NO)C(c1ccccc1)c1cccc(N2CCC(N3CCCC3)CC2)c1 (stereo not shown) [Compound 3-76, N-hydroxy-2-phenyl-2-(3-(4-(pyrrolidin-1-yl)piperidin-1-yl)phenyl)acetamide]
1000 to 15000 nM | O=C(NO)C(c1ccccc1)c1cccc(N2CCN(c3ccc(F)cc3)CC2)c1 (stereo not shown) [Compound 3-78, 2-(3-(4-(4-fluorophenyl)piperazin-1-yl)phenyl)-N-hydroxy-2-phenylacetamide]
< 1000 nM | CC(C)Nc1ccc(C(C(=O)NO)c2ccccc2)cc1 (stereo not shown) [Compound 3-79, N-hydroxy-2-(4-(isopropylamino)phenyl)-2-phenylacetamide]
< 1000 nM | O=C(NO)C(c1ccccc1)c1ccc(Nc2ccccc2)cc1 (stereo not shown) [Compound 3-80, N-hydroxy-2-phenyl-2-(4-(phenylamino)phenyl)acetamide]
< 1000 nM | O=C(NO)C(c1ccccc1)c1ccc(NCc2ccccn2)cc1 (stereo not shown) [Compound 3-81, N-hydroxy-2-phenyl-2-(4-(pyridin-2-ylmethylamino)phenyl)acetamide]
< 1000 nM | CC(=O)N1CCN(c2ccc(C(C(=O)NO)c3ccccc3)cc2)CC1 (stereo not shown) [Compound 3-82, 2-(4-(4-acetylpiperazin-1-yl)phenyl)-N-hydroxy-2-phenylacetamide]
< 1000 nM | O=C(NO)C(c1ccccc1)c1ccc(N2CCC(N3CCCC3)CC2)cc1 (stereo not shown) [Compound 3-83, N-hydroxy-2-phenyl-2-(4-(4-(pyrrolidin-1-yl)piperidin-1-yl)phenyl)acetamide]
< 1000 nM | O=C(NO)C(c1ccccc1)c1ccc(N2CCN(c3ccc(F)cc3)CC2)cc1 (stereo not shown) [Compound 3-84, 2-(4-(4-(4-fluorophenyl)piperazin-1-yl)phenyl)-N-hydroxy-2-phenylacetamide]
< 1000 nM | O=C(NO)C(c1ccccc1)c1ccc(OC/C=C/c2ccccc2)cc1 (stereo not shown) [Compound 3-85, (E)-2-(4-(cinnamyloxy)phenyl)-N-hydroxy-2-phenylacetamide]
< 1000 nM | O=C(NO)C(c1ccccc1)c1ccc(OCc2cccc(OC(F)(F)F)c2)cc1 (stereo not shown) [Compound 3-86, N-hydroxy-2-phenyl-2-(4-(3-(trifluoromethoxy)benzyloxy)phenyl)acetamide]

Compound | IC50
CCC(CC)COc1cccc(C(C(=O)NO)c2ccccc2)c1 (stereo not shown) [Compound 3-31, 2-(3-(2-ethylbutoxy)phenyl)-N-hydroxy-2-phenylacetamide] | 1000 to 15000 nM
CCC(CC)COc1ccc(C(C(=O)NO)c2ccccc2)cc1 (stereo not shown) [Compound 3-55, 2-(4-(2-ethylbutoxy)phenyl)-N-hydroxy-2-phenylacetamide] | < 1000 nM
